Assay results as given in patent US12605407B2, “Methods to induce terminal differentiation in stem cells by interfering with DNA replication, methods of inducing pancreatic differentiation, and differentiated cells obtained thereof” (priority 2018, dated 2026).

Legend:
[1] = system: stem cell derived beta cells; assay: Stability of beta cell identity in long-term culture after removal of compound at day 27; assay type: cell-based, human
Protocol: (§1) The beta cell clusters were dissociated using TrypLE™ Express into single cells. Cells were fixed with 4% PFA for 10 min and followed by permeabilization at −20° C. with cold methanol for 10 min. Primary antibodies were added at a dilution of 1:100 in autoMACs Rinsing Solution (Cat. No. 130-091-222, Miltenyi Biotec) containing 0.5% BSA at 4° C. for 1 hour. Secondary antibodies were added at a dilution of 1:500 at room temperature for 1 hour. The cells were filtered with BD Falcon 12×75 mm tube with cell strainer cap (Cat. No. 352235, BD) and subsequently analyzed by flow cytometer. Data were analyzed using Flowjo software. Negative controls were performed by only adding secondary antibodies.
With APH, a high proportion of cells in the islet-like clusters were positive for C-peptide and NKX6.1, a transcription factor for maintaining the beta cell identity and functional maturation (Schaffer et al., 2013). […] Beta cells were cultured for additional 7 days until about day 34 and 30 days until about day 60 upon removal of these compounds at day 27. […] In contrast, in APH treated cells, there was no decrease in C-peptide or NKX6.1 on day 34 (FIG. 5A). […] After further culturing of the cells for extra 30 days, very few of cells in control group remained GFP expression and were positive for C-peptide.
The ability of other DNA replication inhibitors to stabilize the beta cell identity was investigated. The expressions of GFP were maintained after releasing cells from these inhibitors for 7 days until day 34. With additional 30 days of culture, the expressions of GFP were reduced in all conditions at certain levels, but the cells treated with Cis and Eto expressed higher GFP than the cells treated with APH compared to the other conditions (FIG. 5E, FIG. 5F).

sc-beta cell clusters = assay: Static glucose stimulated C-peptide secretion; assay type: cell-based, human; conditions: 2 mM versus 20 mM glucose
Protocol: Krebs Ringer buffer (KRB) was prepared by addition of 129 mM NaCl, 4.8 mM KCl, 2.5 mM CaCl2), 1.2 mM MgSO4, 1 mM Na2HPO4, 1.2 mM KH2PO4, 5 mM NaHCO3, 10 mM HEPES and 0.1% BSA in deionized water and was sterilized using 0.22 μm filter. 2 mM and 20 mM glucose solution were prepared in KRB for low glucose and high glucose challenge of sc-beta cell clusters. 10-20 sc-beta cell clusters (about 5×10^5 cells) were collected from control and cells treated with cell cycle inhibitors including APH and treated conditions and pre-incubated in 500 μl low glucose solution for 1 hour. Clusters were then washed once with low glucose solution and sequentially incubated in 200 μl of low glucose and then high glucose solution for 30 minutes. 130 μl supernatant of each condition were collected. Supernatants containing secreted C-peptide stimulated by low and high glucose were processed using Mercodia Ultrasensitive Human C-peptide ELISA kit. Fold changes of C-peptide secretion before and after glucose stimulation were calculated.
Insulin positive cells were isolated based on GFP expression and the expressions of genes related to the maturation of beta cells including PDX1, NKX6.1, MAFA and insulin were evaluated (FIG. 6A). […] In addition, the C-peptide secretion was increased 2-6-fold, with an average of 3-fold, in response to high levels of glucose (FIG. 6D).

[2] = system: pancreatic progenitors and beta cells; assay: Cell cycle progression profiling by flow cytometry (Edu incubation, Hoechst DNA content, KI67); assay type: cell-based, human
Protocol: as §1
To investigate the mechanism underlying the increased purity of stem cell-derived C-peptide positive cells induced by APH, cell proliferation, apoptosis and differentiation efficiency were examined during differentiation. The cell cycle progression was profiled at day 15, day 18, day 20 and day 27 of beta cell differentiation. In untreated cells, C-peptide positive cells started to form from day 15 (about 5%) (FIG. 2A) and reached a peak at day 20 (about 46%) (FIG. 2B). About 2% of total cells underwent proliferation during 2 hours of Edu incubation at each stage before day 20 and very few C-peptide positive cells were labeled positive for Edu (FIG. 2B). At day 27, the percentage of proliferating cells increased to about 13% and the percentage of C-peptide positive cells decreased due to proliferation of non-C-peptide cells in the clusters (FIG. 2B). When APH was added from day 15 to day 27, the number of C-peptide positive cells was increased as early as day 18, 3 days after addition of APH (FIG. 2C). At day 20, about 60% cells expressed C-peptide and the high expression of C-peptide was maintained until the day 27.
To determine the cell cycle phase at which aphidicolin arrested pancreatic progenitors and beta cells, flow cytometry combined with Hoechst staining for DNA content and EdU labeling was performed.
By the end of day 27, 30% of control cells were in cell cycle through G1 to M phase indicated by the expression of KI67 (a proliferation marker expressed in the cells within cell cycle) and amount of DNA content (FIG. 3A). […] The cell cycle gene expression in insulin expressing cells was also examined.

NSG mice = assay: Transplantation of treated islet-like clusters, human C-peptide in mouse serum; assay type: in vivo
Protocol: 8-10 weeks old male immuno-compromised mice (NOD.Cg-Prkdcscid Il2rgtm1Wj1/SzJ (NSG) from Jackson laboratories, Cat. No. 005557) were used for transplantation. For intra leg muscle transplantation, 1-2 million cells were collected and settled in tube with 50 μl Matrigel. All animal protocols were approved by the Institutional Animal Care and Use Committee in Columbia University.
The human C-peptide levels in mouse serum were measured every two weeks in the fed state. Intraperitoneal glucose tolerance test was performed by fasting overnight and injecting 2 g/kg D-glucose solution at 2 weeks after mouse beta cells were ablated with one high dose (150 mg/kg) Streptozocin (Cat. No. S0130-1G, Sigma-Aldrich). Blood was collected in heparin-coated tube at fed state, fasting and 30 min after glucose injection. Plasma were collected by centrifuging tubes at 2000 g for 15 minutes at 4° C. The supernatants were collected for C-peptide and insulin detection with Mercodia M-Plex™ ARRAY Chemiluminescent Mercodia Beta Kit. Blood glucose levels was measured at fed state, fasting and every 30 minutes after glucose injection for 2 hours.
To test the ability of aphidicolin treated islet-like clusters to regulate blood glucose levels, treated and untreated cells were grafted into NSG mice on day 27 of differentiation. After transplantation in the immunodeficient mice, the mice transplanted with APH treated cells developed higher human C-peptide starting from 2 weeks after engraftment compared to that of control mice (FIG. 7A). The increase became significant from 6 weeks after transplantation (FIG. 7B).

C[C@@]1(CO)[C@H](O)CC[C@@]2(C)[C@H]1CC[C@H]1C[C@@H]3C[C@@]12CC[C@]3(O)CO [APH, Aphidicolin]
percentage of C-peptide positive cells, and C-peptide and NKX6.1 double positive cells, relative to day 27 before releasing ([1]; after 7 days of releasing cells from APH (day 34)): comparable
C-peptide or NKX6.1 ([1]; day 34, APH removed on day 27): no decrease
number of GFP and C-peptide positive cells compared to day 27 before removal ([1]; day 60): decreased
percentage of C-peptide positive cells ([1]; day 60, APH treatment days 15-27): about 34%
C-peptide secretion increase in response to high levels of glucose (sc-beta cell clusters): 2-6 fold
C-peptide secretion increase in response to high levels of glucose, average (sc-beta cell clusters): 3 fold
number of C-peptide positive cells ([2]; day 18, 3 days after addition of APH (added day 15 to day 27)): increased
cells expressing C-peptide ([2]; day 20, APH added from day 15): about 60%
cell cycle phase of arrest ([2]; end of day 27): arrested in G1 phase
cells in cell cycle (KI67) ([2]; end of day 27): About 5%
high expression of C-peptide ([2]; until day 27, APH added day 15 to day 27): maintained
proliferating cells (Edu) ([2]; whole duration of differentiation, APH day 15 to day 27): Very few cells, if any
secretion of human C-peptide in mice (NSG mice; after glucose injection): increased
increase of human C-peptide versus control mice, significance (NSG mice; from 6 weeks after transplantation): significant
human C-peptide compared to control mice (NSG mice; mice transplanted with APH treated cells, starting from 2 weeks after engraftment): higher
secretion of human C-peptide in mice (NSG mice; when mice were fasted): downregulated
